Results: ChEMBL document CHEMBL1201862, “PubChem BioAssay data set” (2004)
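Exposure lasted 48 hours, with cells grown in 96-well plates and compounds tested at five concentrations. GI50 is the concentration that inhibits growth by half.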 Calls of active or inactive are those of the source. Cut-off read from the data, not from the text of the source: active = GI50 up to about 1.1 µM and inactive = higher.

Key:
Assay in all cases: NCI-60 cell line screen, 48 h
[1] = system: A549
[2] = system: SF-295
[3] = system: U-251
[4] = system: NCI-H522
[5] = system: HCC 2998
[6] = system: IGROV-1
[7] = system: EKVX
[8] = system: RPMI-8226
[9] = system: Hs-578T
[10] = system: OVCAR-3
[11] = system: COLO 205
[12] = system: OVCAR-4
[13] = system: MDA-N
[14] = system: SK-MEL-2
[15] = system: ACHN
[16] = system: HL-60
[17] = system: SK-MEL-28
[18] = system: HCT-15
[19] = system: SK-MEL-5

SMILES	GI50 [1]	GI50 [2]	GI50 [3]	GI50 [4]	GI50 [5]	GI50 [6]	GI50 [7]	GI50 [8]	GI50 [9]	GI50 [10]	GI50 [11]	GI50 [12]	GI50 [13]	GI50 [14]	GI50 [15]	GI50 [16]	GI50 [17]	GI50 [18] [µM]	GI50 [19]
CN(C)/N=C1\C=C2CC[C@H](O[Si](C)(C)C(C)(C)C)[C@@]2(C)CC1	19.5 µM (inactive)	16.4 µM (inactive)	16.2 µM (inactive)	10.4 µM (inactive)	16.9 µM (inactive)	21.7 µM (inactive)	21.7 µM (inactive)	4.4 µM (inactive)	18.1 µM (inactive)	14.5 µM (inactive)	16.9 µM (inactive)	14.9 µM (inactive)	19.9 µM (inactive)	16.2 µM (inactive)	16.5 µM (inactive)	7.93 µM (inactive)	15.9 µM (inactive)	17.6	12.4 µM (inactive)
O=c1cc(-c2ccc(O)cc2)oc2cc(O[C@@H]3O[C@H](CO)[C@@H](O)[C@H](O)[C@H]3O)cc(O)c12 [APIGETRIN]	51.3 µM (inactive)	62.8 µM (inactive)	71 µM (inactive)	31.1 µM (inactive)	36.1 µM (inactive)	57.9 µM (inactive)	> 100 µM (inactive)	> 100 µM (inactive)	40 µM (inactive)	> 100 µM (inactive)	> 100 µM (inactive)	28.2 µM (inactive)	46 µM (inactive)	61.5 µM (inactive)	26.2 µM (inactive)	80.5 µM (inactive)	98.4 µM (inactive)	16.6	46 µM (inactive)
Cc1ccc(O)c(C(c2ccc(C(c3cc(C)ccc3O)c3cc(C)ccc3O)cc2)c2cc(C)ccc2O)c1	1.67 µM (inactive)	2.06 µM (inactive)	1.98 µM (inactive)	2.08 µM (inactive)	1.8 µM (inactive)	1.67 µM (inactive)	1.87 µM (inactive)	1.56 µM (inactive)	2.39 µM (inactive)	1.74 µM (inactive)	1.33 µM (inactive)	1.79 µM (inactive)	1.52 µM (inactive)	1.86 µM (inactive)	1.78 µM (inactive)	2.26 µM (inactive)	1.81 µM (inactive)	1.8	1.77 µM (inactive)
O=C1C2CC(Cl)C(SSC3CC4C(=O)N(SC(Cl)(Cl)C(Cl)Cl)C(=O)C4CC3Cl)CC2C(=O)N1SC(Cl)(Cl)C(Cl)Cl (stereo not given)	2.86 µM (inactive)	5.13 µM (inactive)	1.4 µM (inactive)	0.379 µM (active)	4.43 µM (inactive)	1.3 µM (inactive)	3.01 µM (inactive)	1.81 µM (inactive)	2.37 µM (inactive)	2.05 µM (inactive)	1.78 µM (inactive)	2.13 µM (inactive)	1.7 µM (inactive)	1.53 µM (inactive)	2.23 µM (inactive)	0.543 µM (active)	2.15 µM (inactive)	1.29	1.97 µM (inactive)
COc1cc(C=C2C(C)=NN(c3cccc(Cl)c3)C23SCC(=O)N3c2nc3ccccc3s2)ccc1O (stereo not given)	29.6 µM (inactive)	33.6 µM (inactive)	18.8 µM (inactive)	17.9 µM (inactive)	24.3 µM (inactive)	29.4 µM (inactive)	39.5 µM (inactive)	13.4 µM (inactive)	9.46 µM (inactive)	27 µM (inactive)	16.9 µM (inactive)	36.2 µM (inactive)	31.5 µM (inactive)	19.4 µM (inactive)	26.1 µM (inactive)	3.72 µM (inactive)	33 µM (inactive)	30.4	18.2 µM (inactive)
